Reference: ChEMBL document CHEMBL6087405, “Discovery and optimization of anthraquinone derivatives containing substituted bisbenzyloxy groups as a novel scaffold damaged endoplasmic reticulum and against hepatocellular carcinoma cells” (Bioorg Med Chem, 2024)
Counter-ions that a name gives are not always drawn. Peptide text beside a SMILES is read from it. * marks the point of attachment. Cbz = O=C(OCc1ccccc1)*

Key:
[1] = system: MDA-MB-231; experiment: Antiproliferative activity against human MDA-MB-231 cells measured after 48 hrs by MTT assay; type: functional, cell-based; conditions: MDA-MB-231, 48 h
[2] = system: Huh-7; experiment: Antiproliferative activity against human Huh-7 cells measured after 48 hrs by MTT assay; type: functional, cell-based; conditions: Huh-7, 48 h
[3] = system: A549; experiment: Antiproliferative activity against human A549 cells measured after 48 hrs by MTT assay; type: functional, cell-based; conditions: A549, 48 h
[4] = system: Huh-7; experiment: Induction of apoptosis in human Huh-7 cells assessed as necrotic cells at 20 uM measured after 48 hrs by Annexin V-PE staining based flow cytometry analysis (reference value: 3.37%); type: functional
[5] = system: Huh-7; experiment: Induction of apoptosis in human Huh-7 cells assessed as viable cells at 20 uM measured after 48 hrs by Annexin V-PE staining based flow cytometry analysis (reference value: 93.69%); type: functional; conditions: read-out: Activity
[6] = system: Huh-7; experiment: Induction of apoptosis in human Huh-7 cells assessed as late apoptotic cells at 20 uM measured after 48 hrs by Annexin V-PE staining based flow cytometry analysis (reference value: 2.06%); type: functional
[7] = system: Huh-7; experiment: Induction of apoptosis in human Huh-7 cells assessed as early apoptotic cells at 20 uM measured after 48 hrs by Annexin V-PE staining based flow cytometry analysis (reference value: 0.88%); type: functional

Row | Structure (SMILES) | IC50 [1] [µM] | IC50 [2] [µM] | IC50 [3] [µM] | Activity [4] [%] | viability at 20 µM [5] [%] | Activity [6] [%] | Activity [7] [%]
1 | CNC(=O)c1cc(Oc2ccc(NC(=O)Nc3ccc(Cl)c(C(F)(F)F)c3)cc2)ccn1 [SORAFENIB] |  | 6.53 |  |  |  |  | 
2 | CC(C)[C@H](NC(=O)OCc1ccccc1)C(=O)N[C@@H](C)C(=O)N[C@@H](CC(=O)O)C(=O)O (Cbz-Val-Ala-Asp-OH) |  |  |  | 5.83 | 91.1 | 2.37 | 0.72
3 | COc1cccc2c1C(=O)c1c(O)c3c(c(O)c1C2=O)C[C@@](O)(C(=O)CO)C[C@@H]3O[C@H]1C[C@H](N)[C@H](O)[C@H](C)O1 [DOXORUBICIN HYDROCHLORIDE] | 3.14 |  |  |  |  |  | 
4 | O=C(O)c1cc(O)c2c(c1)C(=O)c1cccc(O)c1C2=O [RHEIN] | > 100 | > 100 | > 100 |  |  |  | 
5 | O=C(NCCCO)c1cc(OCc2ccc(Cl)cc2)c2c(c1)C(=O)c1cccc(OCc3ccc(Cl)cc3)c1C2=O | 6.36 | 5.87 | > 100 |  |  |  | 
6 | Cc1ccc(COc2cccc3c2C(=O)c2c(OCc4ccc(C)cc4)cc(C(=O)NCCOCCO)cc2C3=O)cc1 | 6.14 | 14.9 | > 100 |  |  |  | 
7 | O=C(NCCCCO)c1cc(OCc2ccc(Cl)cc2)c2c(c1)C(=O)c1cccc(OCc3ccc(Cl)cc3)c1C2=O | 17.5 | 20.9 | > 100 |  |  |  | 
8 | COc1ccc(COc2cccc3c2C(=O)c2c(OCc4ccc(OC)cc4)cc(C(=O)NCCOCCO)cc2C3=O)cc1 | 18.5 | 9.24 | 17 |  |  |  | 
9 | O=C(NCCCCCCO)c1cc(OCc2ccc(Cl)cc2)c2c(c1)C(=O)c1cccc(OCc3ccc(Cl)cc3)c1C2=O | 5.73 | 36 | > 100 |  |  |  | 
10 | O=C(NCCOCCO)c1cc(OCc2ccccc2)c2c(c1)C(=O)c1cccc(OCc3ccccc3)c1C2=O | 113 | 64.4 | > 100 |  |  |  | 
11 | O=C(NCCCCCCO)c1cc(OCc2ccccc2)c2c(c1)C(=O)c1cccc(OCc3ccccc3)c1C2=O | 2.82 | 8.87 | 62.5 |  |  |  | 
12 | O=C(NCCO)c1cc(OCc2ccc(Cl)cc2)c2c(c1)C(=O)c1cccc(OCc3ccc(Cl)cc3)c1C2=O | 3.46 | 4.79 | 21.1 |  |  |  | 
13 | O=C(NCCOCCO)c1cc(OCc2ccc(Cl)cc2)c2c(c1)C(=O)c1cccc(OCc3ccc(Cl)cc3)c1C2=O | 7.1 | 50.1 | > 100 |  |  |  | 
14 | O=C(NCCCCCO)c1cc(OCc2ccc(Cl)cc2)c2c(c1)C(=O)c1cccc(OCc3ccc(Cl)cc3)c1C2=O | 16 | 51 | > 100 |  |  |  | 
15 | COc1ccc(COc2cccc3c2C(=O)c2c(OCc4ccc(OC)cc4)cc(C(=O)NCCCCCO)cc2C3=O)cc1 | 2.84 | 4.14 | 5 |  |  |  | 

Further compounds by falling IC50 [1], results first:

Row | IC50 [1] [µM] | IC50 [2] [µM] | IC50 [3] [µM] | Structure (SMILES) | Activity [4] [%] | viability at 20 µM [5] [%] | Activity [6] [%] | Activity [7] [%]
16 | 2.81 | 4.37 | 13.1 | Cc1ccc(COc2cccc3c2C(=O)c2c(OCc4ccc(C)cc4)cc(C(=O)NCCO)cc2C3=O)cc1 |  |  |  | 
17 | 2.48 | 5.08 | 12.3 | Cc1ccc(COc2cccc3c2C(=O)c2c(OCc4ccc(C)cc4)cc(C(=O)NCCCCCO)cc2C3=O)cc1 |  |  |  | 
18 | 2.45 | 2.71 | 4.68 | COc1ccc(COc2cccc3c2C(=O)c2c(OCc4ccc(OC)cc4)cc(C(=O)NCCO)cc2C3=O)cc1 |  |  |  | 
19 | 2.36 | 4.83 | 7.81 | Cc1ccc(COc2cccc3c2C(=O)c2c(OCc4ccc(C)cc4)cc(C(=O)NCCCCCCO)cc2C3=O)cc1 |  |  |  | 
20 | 2.24 | 40.4 | > 100 | O=C(NCCNCCO)c1cc(OCc2ccc(Cl)cc2)c2c(c1)C(=O)c1cccc(OCc3ccc(Cl)cc3)c1C2=O |  |  |  | 
21 | 1.94 | 1.69 | 3.55 | COc1ccc(COc2cccc3c2C(=O)c2c(OCc4ccc(OC)cc4)cc(C(=O)NCCCO)cc2C3=O)cc1 |  |  |  | 
22 | 1.29 | 1.98 | 3.36 | Cc1ccc(COc2cccc3c2C(=O)c2c(OCc4ccc(C)cc4)cc(C(=O)NCCCCO)cc2C3=O)cc1 |  |  |  | 
23 | 1.27 | 1.98 | 5.66 | O=C(NCCNCCO)c1cc(OCc2ccccc2)c2c(c1)C(=O)c1cccc(OCc3ccccc3)c1C2=O |  |  |  | 
24 | 1.15 | 3.75 | 5.79 | Cc1ccc(COc2cccc3c2C(=O)c2c(OCc4ccc(C)cc4)cc(C(=O)NCCCO)cc2C3=O)cc1 |  |  |  | 
25 | 0.97 | 1.13 | 3.49 | COc1ccc(COc2cccc3c2C(=O)c2c(OCc4ccc(OC)cc4)cc(C(=O)NCCCCCCO)cc2C3=O)cc1 |  |  |  | 
26 | 0.91 | 1.96 | 4.76 | Cc1ccc(COc2cccc3c2C(=O)c2c(OCc4ccc(C)cc4)cc(C(=O)NCCNCCO)cc2C3=O)cc1 |  |  |  | 
27 | 0.86 | 0.34 | 5.04 | COc1ccc(COc2cccc3c2C(=O)c2c(OCc4ccc(OC)cc4)cc(C(=O)NCCCCO)cc2C3=O)cc1 |  |  |  | 
